# Assay results from US8729023B2 (priority 2002, dated 2014).
# What was measured:
# [1] = Effect of ET-1 infusion on systemic hemodynamics, radioactive microsphere technique; format: in vivo, rat; details: ET-1 50 ng/kg/min infusion for 30 minutes
# [2] = system: breast tissue of cancer-free and breast tumor-bearing rats; test: Effect of ET-1 infusion on blood flow and regional vascular resistance in breast tissue, microspheres; format: in vivo, rat
# [3] = system: breast tissue of cancer-free and breast tumor-bearing rats; test: Effect of ET-1 on perfusion, CMBC and velocity of blood cells in breast tissue, laser Doppler flowmetry; format: in vivo, rat
# Method: MNU and saline treatments were performed as i.p. injections three months prior to the studies. Rats were palpated regularly starting four weeks after the treatments. Once tumors reached about 4-8 mm in diameter, experiments were initiated.
# Rats were initially divided into two groups, each receiving one of the following treatments: • Group I: ET-1 (50 ng/kg/min) infusion for 30 minutes in rats treated with saline (normal rats) (N=6); and • Group II: ET-1 (50 ng/kg/min) infusion for 30 minutes in treated with MNU (50 mg/kg, i.p.; tumor rats) (N=6).
# Systemic hemodynamic and regional circulation parameters were determined at baseline, 30, 60, and 120 minutes after starting ET-1 (50 ng/kg/min) infusion.
# Blood perfusion to the mammary gland of the rats was measured using laser Doppler flowmetry. See Song et al., Int J Radiat Oncol Biol Phys, 18:903 (1990); Song et al., Int J Radiat Oncol Biol Phys, 17:1041 (1989). The animals were shaved around the nipples. The skin surrounding the mammary glands was dissected out as a lambeau about 6 cm wide and about 4 cm long. A standard model fiber optic probe was applied to the surface of the lambeau, and secured to the tissue by double stick tape. The lambeau was placed in a metal holder and taped down to prevent movement, then connected to a Periflux PF2b 4000 Laser Doppler Flowmetry (Perimed K B, Stockholm, Sweden). The time constant was set at 1.5 seconds and the bandwidth was set at 4 KHz. Data were analyzed using analysis of variance followed by Duncan's test. A level of p<0.05 was considered significant.
# [4] = system: JHU-4 (MAT-LyLu) prostate tumor; details: rat, in vivo
# [5] = tumor-bearing rats, at 30 minutes
# [6] = tumor-bearing rats, at 60 minutes
# [7] = tumor-bearing rats, at 120 minutes
# [8] = normal saline-treated rats, ET-1 50 ng/kg/min infusion for 30 minutes
structure (smiles),measurement,setting,value
CC[C@H](C)[C@H](NC(=O)[C@H](CC(=O)O)NC(=O)[C@H](CC(C)C)NC(=O)[C@H](Cc1c[nH]cn1)NC(=O)[C@@H]1CSSC[C@H](N)C(=O)N[C@@H](CO)C(=O)N[C@H]2CSSC[C@H](NC(=O)[C@H](CCC(=O)O)NC(=O)[C@H](CCCCN)NC(=O)[C@H](CC(=O)O)NC(=O)[C@H](CCSC)NC(=O)[C@H](CC(C)C)NC(=O)[C@H](CO)NC(=O)[C@H](CO)NC2=O)C(=O)N[C@@H](C(C)C)C(=O)N[C@@H](Cc2ccc(O)cc2)C(=O)N[C@@H](Cc2ccccc2)C(=O)N1)C(=O)N[C@H](C(=O)N[C@@H](Cc1c[nH]c2ccccc12)C(=O)O)[C@@H](C)CC [ET-1],change in HR,[1]; normal rats,No significant change
same,increase in MAP,"[1]; normal rats, at 30 minutes",14.5%
same,CO decrease,"[1]; normal rats, at 60 minutes",22.9%
same,SV decrease,"[1]; normal rats, at 60 minutes",20.9%
same,CO decrease,"[1]; normal rats, at 120 minutes",42.5%
same,SV decrease,"[1]; normal rats, at 120 minutes",36%
same,TPR increase,"[1]; normal rats, at 120 minutes",49.2%
same,decrease in MAP,"[1]; normal rats, at 120 minutes",17.8%
same,increase in MAP,"[1]; tumor-bearing (MNU treated) rats, at 30 minutes",19.1%
same,increase in MAP,"[1]; tumor-bearing (MNU treated) rats, at 60 minutes",15.3%
same,change in HR,[1]; tumor-bearing rats,No change
same,CO decrease,[1]; [5],29.4%
same,SV decrease,[1]; [5],31.1%
same,TPR increase,[1]; [5],73.9%
same,CO decrease,[1]; [6],16.7%
same,SV decrease,[1]; [6],17.9%
same,TPR increase,[1]; [6],39.7%
same,CO decrease,[1]; [7],36.1%
same,SV decrease,[1]; [7],32.1%
same,TPR increase,[1]; [7],71.4%
same,"vascular resistance in tumor-bearing rats, difference compared to normal rats",[2]; at 60 minutes following ET-1 administration,147%
same,increase in blood flow to the breast tissue of tumor-bearing rats as compared to normal rats,[2]; at 60 minutes following administration of ET-1 50 ng/kg/min,153%
same,change in blood flow to the breast tissue,[2]; [8],No significant change
same,change in vascular resistance in breast tissue,[2]; [8],No significant change
same,velocity of RBC in tumor-bearing rats,[3]; 120 minutes after ET-1 administration,returned to baseline
same,perfusion in the breast tissue of tumor-bearing rats,[3]; at 60 and 120 minutes following ET-1 administration,returned to baseline
same,"perfusion in the breast tissue of tumor-bearing rats, increase compared to normal rats",[3]; at 30 minutes following ET-1 administration,176%
same,"CMBC in tumor-bearing rats, increase as compared to normal rats",[3]; at 60 minutes post ET-1 administration,54%
same,CMBC in tumor-bearing rats,[3]; at 120 minutes after ET-1 administration,returned to baseline
same,blood perfusion in the breast tissue,"[3]; normal rats, after ET-1 50 ng/kg/min infusion",did not significantly change
same,"velocity of RBC, increase compared to normal rats","[3]; tumor-bearing rats, at 30 minutes post ET-1 administration",252%
"COc1cccc2c1C(=O)c1c(O)c3c(c(O)c1C2=O)C[C@@](O)(C(=O)CO)C[C@@H]3O[C@H]1C[C@H](N)[C@H](O)[C@H](C)O1 [saline+DOX, doxorubicin]",maximum decrease in body weight,[4],−8.46±3.88
